From patent publication US20110082161A1, “POWDERS FOR RECONSTITUTION” (priority 2008, published 2011)

Key:
[1] = Safety and tolerability in Phase I single-dose trial; type: in vivo, human healthy subjects; conditions: single doses of 200 mg TMC125, healthy subjects
Source text: No clinically relevant safety issues were identified with respect to the parameters studied, including AEs, laboratory and cardiovascular safety, and physical and skin examinations.

[2] = background statement; cited from earlier work

Cc1cc(C#N)cc(C)c1Oc1nc(Nc2ccc(C#N)cc2)nc(N)c1Br [TMC125, 4-[[6-amino-5-bromo-2-[(4-cyanophenyl)amino]-4-pyrimidinyl]oxy]-3,5-dimethylbenzonitrile]
safety and tolerability (AEs, laboratory, cardiovascular, physical and skin examinations) [1]: generally safe and well tolerated
solubility in aqueous media [2]: very insoluble
